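Five compound concentrations were applied to cells in 96-well plates for 48 hours; endpoints were derived by simple linear interpolation of the resulting dose-response curve. TGI denotes the concentration required for complete inhibition of growth.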
Key:
Experiment in all cases: DTP human tumour cell line panel, 48 h
[1] = system: CAKI-1 renal
[2] = system: SK-MEL-5 melanoma
[3] = system: M14 melanoma
[4] = system: UACC-62 melanoma
[5] = system: RXF-631 renal
[6] = system: SK-MEL-28 melanoma
[7] = system: EKVX NSCLC
[8] = system: NCI-H23 lung
[9] = system: A498 renal
[10] = system: NCI-H226 lung
[11] = system: NCI-H460 lung
[12] = system: TK-10 renal
[13] = system: U251 CNS
[14] = system: UO-31 renal
[15] = system: RPMI-8226 leukemia
[16] = system: UACC-257 melanoma
[17] = system: IGROV1 ovarian
[18] = system: DMS 114 small cell lung
[19] = system: DLD-1 colon
[20] = system: XF 498 CNS
[21] = system: SK-OV-3 ovarian
[22] = system: SW-620 colon
[23] = system: SNB-75 CNS
[24] = system: CCRF-CEM leukemia
[25] = system: SNB-78 CNS
[26] = system: OVCAR-8 ovarian
[27] = system: NCI-H522 lung
[28] = system: SN12C renal
[29] = system: OVCAR-5 ovarian
[30] = system: DMS 273 small cell lung
[31] = system: HCC-2998 colon
[32] = system: SNB-19 CNS
[33] = system: OVCAR-3 ovarian
[34] = system: 786-0 renal
[35] = system: HOP-92 NSCLC
[36] = system: COLO 205 colon
[37] = system: SF-295 CNS
[38] = system: SF-268 CNS
[39] = system: MOLT-4 leukemia
[40] = system: HL-60(TB) leukemia
[41] = system: RXF 393 renal
[42] = system: A549 NSCLC
[43] = system: KM12 colon
[44] = system: OVCAR-4 ovarian
[45] = system: SK-MEL-2 melanoma
[46] = system: HOP-62 NSCLC
[47] = system: MALME-3M melanoma
[48] = system: K-562 leukemia
[49] = system: ACHN renal
[50] = system: LOX IMVI melanoma
[51] = system: KM20L2 colon
[52] = system: LXFL 529 NSCLC
[53] = system: HCT-116 colon
[54] = system: M19-MEL melanoma
[55] = system: HT29 colon
[56] = system: HCT-15 colon
[57] = system: SF-539 CNS
[58] = system: SR leukemia

c1ccc(CNc2ccc3[nH]c4cnccc4c3c2)cc1
TGI [1]: 30.4 µM | TGI [2]: 30.2 µM | TGI [3]: 32.9 µM | TGI [4]: 34 µM | TGI [5]: 49.2 µM | TGI [6]: 27.1 µM | TGI [7]: 43.4 µM | TGI [8]: 32.3 µM | TGI [9]: 28.6 µM | TGI [10]: 38.4 µM | TGI [11]: 34.1 µM | TGI [12]: 36.2 µM | TGI [13]: 32 µM | TGI [14]: 29.4 µM | TGI [15]: 54.7 µM | TGI [16]: 31.4 µM | TGI [17]: 34.4 µM | TGI [18]: 32.1 µM | TGI [19]: 31.9 µM | TGI [20]: 35.8 µM | TGI [21]: 41.5 µM | TGI [22]: 42.2 µM | TGI [23]: 19.8 µM | TGI [24]: 42.5 µM | TGI [25]: 38.5 µM | TGI [26]: 36.5 µM | TGI [27]: 29.1 µM | TGI [28]: 33.3 µM | TGI [29]: 30.9 µM | TGI [30]: 37.4 µM | TGI [31]: 33.2 µM | TGI [32]: 29.6 µM | TGI [33]: 27 µM | TGI [34]: 29.3 µM | TGI [35]: 30.8 µM | TGI [36]: 31 µM | TGI [37]: 32.6 µM | TGI [38]: 35 µM | TGI [39]: 36.9 µM | TGI [40]: 27.4 µM | TGI [41]: 26.8 µM | TGI [42]: 34.7 µM | TGI [43]: 31.1 µM | TGI [44]: 29.1 µM | TGI [45]: 33.1 µM | TGI [46]: 31.7 µM | TGI [47]: 35.8 µM | TGI [48]: 36.5 µM | TGI [49]: 29 µM | TGI [50]: 33.5 µM | TGI [51]: 30.9 µM | TGI [52]: 30.5 µM | TGI [53]: 33.2 µM | TGI [54]: 36.3 µM | TGI [55]: 31.7 µM | TGI [56]: 39.1 µM | TGI [57]: 33.3 µM

OC1CC1Sc1ccccc1 (stereo not given)
TGI [1]: > 100 µM | TGI [2]: > 100 µM | TGI [3]: > 100 µM | TGI [4]: > 100 µM | TGI [5]: > 100 µM | TGI [6]: 57.3 µM | TGI [7]: > 100 µM | TGI [8]: > 100 µM | TGI [9]: > 100 µM | TGI [11]: > 100 µM | TGI [12]: > 100 µM | TGI [13]: > 100 µM | TGI [14]: 33.6 µM | TGI [15]: 83.4 µM | TGI [16]: > 100 µM | TGI [17]: 60.1 µM | TGI [18]: 74.4 µM | TGI [19]: > 100 µM | TGI [20]: > 100 µM | TGI [21]: > 100 µM | TGI [22]: 78.4 µM | TGI [23]: > 100 µM | TGI [24]: > 100 µM | TGI [25]: > 100 µM | TGI [26]: 92.7 µM | TGI [27]: 39.8 µM | TGI [28]: 61.7 µM | TGI [29]: > 100 µM | TGI [30]: > 100 µM | TGI [31]: > 100 µM | TGI [32]: > 100 µM | TGI [33]: 78.7 µM | TGI [34]: 42.8 µM | TGI [35]: > 100 µM | TGI [36]: > 100 µM | TGI [37]: 69.4 µM | TGI [38]: 78.1 µM | TGI [39]: 91.7 µM | TGI [40]: 39.6 µM | TGI [41]: > 100 µM | TGI [42]: > 100 µM | TGI [43]: > 100 µM | TGI [44]: > 100 µM | TGI [45]: > 100 µM | TGI [46]: > 100 µM | TGI [47]: > 100 µM | TGI [48]: > 100 µM | TGI [49]: > 100 µM | TGI [50]: 71.1 µM | TGI [52]: 89.2 µM | TGI [53]: 62.9 µM | TGI [54]: > 100 µM | TGI [55]: > 100 µM | TGI [56]: > 100 µM | TGI [57]: 46.4 µM

O=c1cccccc1NCCCCCCCCNc1cccccc1=O
TGI [1]: > 100 µM | TGI [3]: > 100 µM | TGI [4]: > 100 µM | TGI [5]: > 100 µM | TGI [7]: > 100 µM | TGI [8]: > 100 µM | TGI [10]: > 100 µM | TGI [11]: > 100 µM | TGI [13]: > 100 µM | TGI [14]: > 100 µM | TGI [15]: > 100 µM | TGI [16]: > 100 µM | TGI [17]: > 100 µM | TGI [58]: > 100 µM | TGI [18]: > 100 µM | TGI [19]: > 100 µM | TGI [20]: > 100 µM | TGI [21]: > 100 µM | TGI [22]: > 100 µM | TGI [23]: > 100 µM | TGI [24]: > 100 µM | TGI [25]: > 100 µM | TGI [26]: > 100 µM | TGI [27]: > 100 µM | TGI [28]: > 100 µM | TGI [29]: > 100 µM | TGI [30]: > 100 µM | TGI [31]: > 100 µM | TGI [32]: > 100 µM | TGI [33]: > 100 µM | TGI [34]: > 100 µM | TGI [35]: 87.3 µM | TGI [36]: > 100 µM | TGI [37]: > 100 µM | TGI [38]: > 100 µM | TGI [39]: > 100 µM | TGI [40]: > 100 µM | TGI [41]: > 100 µM | TGI [42]: > 100 µM | TGI [43]: > 100 µM | TGI [45]: > 100 µM | TGI [46]: > 100 µM | TGI [47]: > 100 µM | TGI [48]: > 100 µM | TGI [49]: > 100 µM | TGI [50]: > 100 µM | TGI [51]: > 100 µM | TGI [52]: > 100 µM | TGI [53]: > 100 µM | TGI [54]: > 100 µM | TGI [55]: > 100 µM | TGI [56]: > 100 µM | TGI [57]: > 100 µM

Source: PubChem BioAssay (NCI)
